Measurements taken from PMC10465125 (eLife, 2023).
Entries after “also recorded” stand apart in the source; their conditions may differ.

Assays:
SARS-CoV-2 omicron virus = assay: microbe, parasite or virus in culture; assay type: cell-based
[1] = system: SARS-CoV-2 spike Vpps of different variants (alpha, beta, gamma, delta, omicron); assay type: cell-based

Compound | EC50 (SARS-CoV-2 omicron virus; Severe acute respiratory syndrome coronavirus 2, Vero C1008, read-out: EC50 against omicron variant virus production) | suppression of entry of Vpp of beta, delta and omicron variant [1] | suppression of infection by Vpp of wild type, alpha variant, gamma variant [1] | EC50 against omicron variant virus production (SARS-CoV-2 omicron virus) | block of alpha, beta, gamma, delta, and omicron variants Vpp infection as well as wild-type Vpps [1]
O=C1O[C@H]2[C@@H]3OC(=O)c4cc(O)c(O)c(O)c4-c4c(O)c(O)c5oc(=O)c6c(c(O)c(O)c7oc(=O)c4c5c76)-c4c(cc(O)c(O)c4O)C(=O)OC[C@H]3OC(O)[C@@H]2OC(=O)c2cc(O)c(O)c(O)c2-c2c1cc(O)c(O)c2O (mixture of isomers) [Punicalagin, punicalagin] | 2.88 µg/mL | less potency and not | significant suppression; also recorded: potent inhibitor | – | –
tannic acid [reference compound] | – | – | significant suppression | 5.27 µg/mL | could block
